What was measured:
[1] = system: spliced isoform sXBP1 in ES-derived differentiated cells; experiment: sXBP1 quantitative PCR, differentiated cells; type: cell-based, human; conditions: 20 μM PluriSIn #1 or 100 nm A939572
[2] = system: phosphorylated eIF2α in hPSCs; experiment: Phospho-eIF2α immunoblot, ES cells; type: cell-based, human; conditions: 20 μM PluriSIn #1 or 100 nm A939572
Protocol: For immunoblotting, 10% polyacrylamide gel was used for protein separation and detection. The gel was transferred to a nitrocellulose membrane and antibody hybridization and chemiluminescence were performed according to standard procedures. The primary antibodies in this analysis were rabbit anti-phosphorylated-eIF2a (1:250, Cell Signaling Technology), rabbit anti caspase-3 (1:1,000, Cell Signaling Technology), mouse anti β-catenin (1:10,000, BD Biosciences) and mouse anti-α-tubulin (1:50,000, Sigma-Aldrich). Horseradish peroxidase-conjugated anti-rabbit and anti-mouse secondary antibodies were obtained from Jackson Immunoresearch Laboratories.
To further study the significance of UPR, XBP1 mRNA splicing and eIF2α phosphorylation, hallmarks of UPR, were further examined. Human ES cells and ES-derived differentiated cells were treated with PluriSIn #1 for 12 hours, and expression of the spliced isoform sXBP1 was determined by quantitative PCR and by immunoblotting, as described in the Materials and Methods section. Gene expression change conferred by dithiothreitol ([…]) was used as a positive control.

[3] = system: protein synthesis in H9 embryonic stem cells; experiment: 35S-Met metabolic labeling of protein synthesis, ES cells; type: cell-based, human; conditions: 12 hours; 20 μM PluriSIn #1 or 100 nm A939572
Protocol: H9 embryonic stem cells were seeded in Matrigel™ pre-coated 6-well tissue culture plates at a density of 2×10^5 cells/well, and cultured using mTeSR1 defined medium. BJ fibroblasts were seeded in 6-well tissue culture plate at the same density, and cultured with DMEM supplemented with 10% FBS, penicillin (50 U/ml) and streptomycin (50 μg/ml). Cells were treated for 12 hours with either 20 μM PluriSIn #1 (isonicotinic acid N′-phenylhydrazide) or with 0.2% DMSO. Cells were then washed with PBS, and replenished with methionine-deficient medium for 1 hour. Metabolic labeling of the cells was then performed for 1 hour with 10 μCi of […] methionine in 1 ml/well, in the presence of 20 μM PluriSIn #1 or 0.2% DMSO. Cells were washed with PBS containing 10 mM methionine, and were then lysed in 0.4 ml of 30% ice-cold trichloroacetic acid (TCA) containing 10 mM methionine for 15 minutes. […] Total protein concentration was determined using a Bradford Protein Assay (Sigma-Aldrich), and the radioactivity measurements were normalized accordingly. […]
The similarity between PSIs and PluriSIn #1 and #6 is consistent with the fact that UPR can lead to translational attenuation. In order to confirm this link, the effect of PluriSIn #1 treatment on protein synthesis was determined. […]

[4] = system: undifferentiated CSES2-SO2/3 embryonic stem cells; experiment: Fluorescence microscopy imaging of undifferentiated CSES2-SO2/3 cells; type: cell-based, human; conditions: for effect on undifferentiated cells: 24 hours of exposure
Protocol: (§1) High content imaging of CSES2-SO2/3 fluorescent cells (mCherry+ or EGFP+) was performed in black clear-bottom 384-well assay plates (Falcon BD), using the Opera high-content screen imaging platform (PerkinElmer). Otherwise, light and fluorescence imaging of all cells was performed in 24-well, 6-well or 10 cm CELLSTAR® plates (Greiner Bio-One), using an Olympus CellR imaging station. Light imaging of developing mouse embryos was performed in 35 mm culture dishes (Falcon BD), using an Olympus IX70 microscope.
(§2) CSES2-SO2/3 is a genetically-labeled cell line that expresses mCherry under the promoter of the pluripotency hallmark gene OCT-4, and GFP under the promoter of the early endodermal marker SOX17. Therefore, these cells are red while undifferentiated, and become green upon their differentiation into the endodermal lineage [Kopper & Benvenisty, Stem Cell Research 8:335-345 (2011)]. Green early endodermal progenitor cells were generated from the red undifferentiated cells, using an 8-day differentiation protocol as described by Duan et al. [Stem Cells 28:674-686 (2010)].
(§3) In order to further verify the selectivity of the PluriSIns, and rule out any potential assay-related interference, undifferentiated and differentiated CSES2-SO2/3 cells were subjected to microscopy imaging after 24 hours of exposure to PluriSIns.

[5] = system: CSES2-SO2/3-derived differentiated cells; experiment: Fluorescence microscopy imaging of differentiated CSES2-SO2/3 cells; type: cell-based, human; conditions: 24 hours of exposure
Protocol: as §1, §2, §3

human ES cells = experiment: Global gene expression analysis (microarray); type: cell-based; conditions: 12 hours
Protocol: Human embryonic stem cells, and early endodermal progenitors derived from human embryonic stem cells, were treated for 12 hours with the compounds PluriSIn #1 (isonicotinic acid N′-phenylhydrazide) or PluriSIn #6 (2-hydroxy-2-(thiophen-2-yl)-2-phenylacetic acid 4-methyl-N′-phenylhydrazide), or with 0.2% DMSO control. Total RNA was extracted using a PerfectPure™ RNA Cultured Cell Kit (5 Prime) according to the manufacturer's protocol, and analyzed using a Human Genome U133A 2.0 microarray platform (Affymetrix); washing and scanning were performed according to the manufacturer's protocol. Original microarray data are accessible at the NCBI Gene Expression Omnibus (GEO) database under the accession number GSE37040.
Arrays were normalized using the MASS algorithm in the Affymetrix Expression Console. Probe sets absent in both control and treatment conditions were filtered out by the MASS Absent/Present call. Probe sets with expression values lower than 50 were raised to this level. Using a 2-fold threshold, a list of differentially expressed genes was comprised for each pair of conditions: embryonic stem cells treated with PluriSin #1 vs. control, ESCs treated with PluriSIn #6 vs. control, and endodermal progenitor cells treated with PluriSIn #1 vs. control. […]

Row | Structure (SMILES) | expression of spliced isoform sXBP1, differentiated cells [1] | levels of phosphorylated eIF2α, ES cells [2] | decrease in protein synthesis, ES cells [3] | effect on undifferentiated cells [4] | effect on undifferentiated cells in a mixture of differentiated and undifferentiated cells ([4]; mixture of CSES2-SO2/3 ES and derived differentiated cells) | effect on differentiated cells [5] | gene expression changes associated with ER stress and UPR (human ES cells)
1 | CNC(=O)c1cccc(NC(=O)N2CCC(Oc3ccccc3Cl)CC2)c1 [A939572, 4-(2-chlorophenoxy)-N-(3-(methylcarbamoyl)-phenyl)piperidine-1-carboxamide, reference compound] | did not increase expression | increased levels | approximately 50% |  |  |  | 
2 | O=C(NNc1ccccc1)c1ccncc1 [PluriSIn #1, isonicotinic acid N′-phenylhydrazide] | did not increase | increased levels | approximately 30% | eliminated undifferentiated cells | also eliminated undifferentiated cells | without exhibiting any detectable effect | considerable gene expression changes
3 | Cc1ccc(NNC(=O)C(O)(c2ccccc2)c2cccs2)cc1 (stereo not shown) [PluriSIn #6, 2-hydroxy-2-(thiophen-2-yl)-2-phenylacetic acid 4-methyl-N′-phenylhydrazide] |  |  |  | eliminated the red undifferentiated cells |  | without exhibiting any detectable effect | considerable gene expression changes

Reference: US20180153830A1, “SELECTIVE INHIBITORS OF UNDIFFERENTIATED CELLS” (Yissum Research Development Company of the Hebrew …, priority 2012, published 2018)
